Assay results: patent US20260152494A1, “CDK2 INHIBITORS AND METHODS OF USING THE SAME” (Cedilla Therapeutics, Inc., priority 2022, published 2026)

How the values were obtained:
[1] = target: T1, CDK2/Cyclin E1 (Homo sapiens, UniProt P24941); assay: CDK2/Cyclin E1 Caliper LabChip EZ Reader mobility shift assay; format: biochemical; settings: 2.5 nM CDK2/Cyclin E1, 100 μM ATP, 1.5 μM fluorescent peptide, 30 min preincubation; read-out: Caliper Assay (CDK2/CCNE1): IC50
T1 construct: purchased Eurofins 14-475
Procedure: Example A1: CDK2/Cyclin E1 Caliper Assay
Inhibition of CDK2/Cyclin E1 activity in the presence of compounds of the present disclosure was evaluated using a Caliper LabChip® EZ Reader mobility shift assay. In the assay, CDK2/Cyclin E1 (Eurofins, 14-475) catalyzed the phosphorylation of a fluorescently tagged peptide 5-FAM-QSPKKG-CONH2 (PerkinElmer, FL Peptide 18) which induced a difference in capillary electrophoresis mobility. The peptide substrate and product were measured, and the conversion ratio was used to determine the inhibition (as % activity and IC50 values) of CDK2/Cyclin E1. Reactions contained 50 mM HEPES pH 7.5, 10 mM MgCl2, 1 mM EDTA, 2 mM DTT, 0.01% Brij35, 0.5 mg/mL BSA, 0.1% DMSO, 2.5 nM CDK2/Cyclin E1, 100 μM ATP, and 1.5 μM fluorescent peptide substrate.
Dose titrations of inhibitors in 100% DMSO were combined with 3.25 nM CDK2/Cyclin E1 and 130 μM of ATP in reaction buffer. The mixtures were incubated for 30 minutes before the addition of fluorescent peptide substrate to initiate the kinase reaction. The final conditions were 2.5 nM CDK2/Cyclin E1, 100 μM ATP, and 1.5 μM fluorescent peptide. The reactions were stopped after 100 minutes with the addition of EDTA (400 mM final EDTA concentration). The stopped reactions were analyzed on a Caliper LabChip® EZ Reader II. The conversion ratios were normalized to yield % activity, plotted against compound concentration, and fit to a four-parameter equation to determine the IC50 for each compound.

[2] = tested on: Kuramochi cells labeled with mApple-H2B; assay: IncuCyte cell proliferation assay; format: cell-based; settings: Kuramochi RB-WT cells, 72 hours, cell count normalized to DMSO
Procedure: Example A3: IncuCyte® Cell Proliferation Assay
IncuCyte® assay was used to measure the effect of disclosed compounds on cell proliferation. Fluorescent microscopy images of cells were taken immediately after compound treatment and 72 hours later. Image analysis software was used to obtain cell counts as a function of compound concentration. Kuramochi cells labeled with mApple-H2B were seeded on 384-well assay-ready plates. Plates were placed in an IncuCyte® (Sartorius) and scanned at 0 and 72 hours. IncuCyte® software was used to count the number of fluorescent nuclei in each well. The fold change in cell count from 0 to 72 hours in wells treated with increasing compounds concentrations (10 pts, 1/2 log dilution, 20 μM top concentration) was normalized to DMSO control wells. The normalized cell counts were fit with dose response curves and a GI50 was calculated.

Compound: CN(C(=O)C1CC2(C1)CN(C(=O)c1cncs1)CC2c1nnc(C(F)(F)c2ccc(Cl)c(Cl)c2)o1)C1CC1 (racemic) [Compound I-16, rac-(R)—N-cyclopropyl-8-(5-((3,4-dichlorophenyl)difluoromethyl)-1,3,4-oxadiazol-2-yl)-N-methyl-6-(thiazole-5-carbonyl)-6-azaspiro[3.4]octane-2-carboxamide]
- IC50 [1]: > 10 µM
- IC50 [2]: > 20 µM

Compound: C[C@@H](OCC1CCCCC1)C(NC(=O)[C@@H]1CCOC12CN(C(=O)[C@H]1CC1(C)C)C2)C(=O)N1CCCCC1 (single isomer, unassigned) [I-29 1st]
- IC50 [1]: > 10 µM
- IC50 [2]: > 20 µM

Compound: C[C@@H](OCC1CCCCC1)[C@H](NC(=O)[C@H]1CCOC12CN(C(=O)[C@H]1CC1(C)C)C2)C(=O)N1CCCCC1 (single isomer, unassigned) [I-29 2nd]
- IC50 [1]: > 10 µM
- IC50 [2]: > 20 µM

Compound: C[C@@H](OCC1CCCCC1)[C@H](NC(=O)[C@@H]1CCOC12CN(C(=O)[C@H]1CC1(C)C)C2)C(=O)N1CCC[C@H](N)C1 (single isomer, unassigned) [I-31 1st]
- IC50 [1]: > 10 µM
- IC50 [2]: > 20 µM

Compound: C[C@@H](OCC1CCCCC1)[C@H](NC(=O)[C@H]1CCOC12CN(C(=O)[C@H]1CC1(C)C)C2)C(=O)N1CCC[C@H](N)C1 (single isomer, unassigned) [I-31 2nd]
- IC50 [1]: > 10 µM
- IC50 [2]: > 20 µM

Compound: C[C@@H](OCC1CCCCC1)[C@H](NC(=O)[C@@H]1CCOC12CN(C(=O)[C@H]1CC1(C)C)C2)C(=O)N1CCC[C@@H](N)C1 (single isomer, unassigned) [I-34 1st]
- IC50 [1]: > 10 µM
- IC50 [2]: > 20 µM

Compound: C[C@@H](OCC1CCCCC1)[C@H](NC(=O)[C@H]1CCOC12CN(C(=O)[C@H]1CC1(C)C)C2)C(=O)N1CCC[C@@H](N)C1 (single isomer, unassigned) [I-34 2nd]
- IC50 [1]: > 10 µM
- IC50 [2]: > 20 µM

Compound: CNC(=O)[C@@H](NC(=O)[C@H]1CCOC12CN(C(=O)[C@H]1CC1(C)C)C2)[C@@H](C)OCC1CCCCC1 (single isomer, unassigned) [I-35 1st]
- IC50 [1]: > 10 µM
- IC50 [2]: > 20 µM

Compound: CNC(=O)[C@@H](NC(=O)[C@@H]1CCOC12CN(C(=O)[C@H]1CC1(C)C)C2)[C@@H](C)OCC1CCCCC1 (single isomer, unassigned) [I-35 2nd]
- IC50 [1]: > 10 µM
- IC50 [2]: > 20 µM

Compound: O=C(c1cc(F)n[nH]1)N1CC(c2nnc(C(F)(F)c3ccc(Cl)c(Cl)c3)o2)C2(CCOCC2)C1 (centres unmarked) [Compound I-1]
- IC50 [1]: > 10 µM
- IC50 [2]: > 20 µM

Compound: O=C(c1cncs1)N1CC(c2nnc(C(F)(F)c3ccc(Cl)c(Cl)c3)o2)C2(CCN(C(=O)[C@H]3CC3(F)F)CC2)C1 (stereo partly drawn) [Compound I-2, (4-(5-((3,4-dichlorophenyl)difluoromethyl)-1,3,4-oxadiazol-2-yl)-2-(thiazole-5-carbonyl)-2,8-diazaspiro[4.5]decan-8-yl)((R)-2,2-difluorocyclopropyl)methanone]
- IC50 [1]: > 10 µM
- IC50 [2]: > 20 µM

Compound: O=C(c1cncs1)N1CC(c2nnc(C(F)(F)c3ccc(Cl)c(Cl)c3)o2)C2(CC(C(=O)N3CCC3)C2)C1 (centres unmarked) [Compound I-3]
- IC50 [2]: > 20 µM

Compound: CC(=O)N1CC(c2nnc(C(F)(F)c3ccc(Cl)c(Cl)c3)o2)C2(CCOCC2)C1 (centres unmarked) [Compound I-7]
- IC50 [1]: > 10 µM
- IC50 [2]: > 20 µM

Compound: O=C(c1cncs1)N1CC(c2nnc(C(F)(F)c3ccc(Cl)c(Cl)c3)o2)C2(CCS(=O)(=O)CC2)C1 (centres unmarked) [Compound I-8, (4-(5-((3,4-dichlorophenyl)difluoromethyl)-1,3,4-oxadiazol-2-yl)-8,8-dioxido-8-thia-2-azaspiro[4.5]decan-2-yl)(thiazol-5-yl)methanone]
- IC50 [1]: > 10 µM
- IC50 [2]: > 20 µM

Compound: O=C(c1cncs1)N1CC(c2nnc(C(F)(F)c3ccc(Cl)c(Cl)c3)o2)C2(CCNCC2)C1 (centres unmarked) [Compound I-9]
- IC50 [1]: > 10 µM
- IC50 [2]: > 20 µM

Compound: O=C(c1cnccn1)N1CC(c2nnc(C(F)(F)c3ccc(Cl)c(Cl)c3)o2)C2(CCOCC2)C1 (centres unmarked) [Compound I-10]
- IC50 [1]: > 10 µM
- IC50 [2]: > 20 µM

Compound: O=C(c1cncs1)N1CC(c2nnc(C(F)(F)c3ccc(Cl)c(Cl)c3)o2)C2(CCC2)C1 (centres unmarked) [Compound I-11, (8-(5-((3,4-dichlorophenyl)difluoromethyl)-1,3,4-oxadiazol-2-yl)-6-azaspiro[3.4]octan-6-yl)(thiazol-5-yl)methanone]
- IC50 [1]: > 10 µM
- IC50 [2]: > 20 µM

Compound: O=C(c1cncs1)N1CC(c2nnc(C(F)(F)c3ccc(Cl)c(Cl)c3)o2)C2(CCOCC2)C1 (centres unmarked) [Compound I-12, (4-(5-((3,4-dichlorophenyl)difluoromethyl)-1,3,4-oxadiazol-2-yl)-8-oxa-2-azaspiro[4.5]decan-2-yl)(thiazol-5-yl)methanone]
- IC50 [1]: > 10 µM
- IC50 [2]: > 20 µM

Compound: CC(C)(C)OC(=O)N1CCC2(CC1)CN(C(=O)c1cncs1)CC2c1nnc(C(F)(F)c2ccc(Cl)c(Cl)c2)o1 (centres unmarked) [Compound I-14, tert-butyl 4-(5-((3,4-dichlorophenyl)difluoromethyl)-1,3,4-oxadiazol-2-yl)-2-(thiazole-5-carbonyl)-2,8-diazaspiro[4.5]decane-8-carboxylate]
- IC50 [1]: > 10 µM
- IC50 [2]: 5 to 20 µM

Compound: CC1(C)C[C@@H]1C(=O)N1CCC2(CC1)CN(C(=O)c1cncs1)CC2c1nnc(C(F)(F)c2ccc(Cl)c(Cl)c2)o1 (stereo partly drawn) [Compound I-15, (4-(5-((3,4-dichlorophenyl)difluoromethyl)-1,3,4-oxadiazol-2-yl)-2-(thiazole-5-carbonyl)-2,8-diazaspiro[4.5]decan-8-yl)((S)-2,2-dimethylcyclopropyl)methanone]
- IC50 [1]: > 10 µM
- IC50 [2]: > 20 µM

Compound: COC[C@H]1CCCN(C(=O)[C@@H](NC(=O)[C@@H]2CN(C(=O)c3cncs3)CC23CN([S+]([O-])C(C)(C)C)C3)[C@@H](C)OCC2CCCCC2)C1 (stereo partly drawn) [Compound I-17, (8S)-2-(tert-butylsulfinyl)-N-((2S,3R)-3-(cyclohexylmethoxy)-1-((S)-3-(methoxymethyl)piperidin-1-yl)-1-oxobutan-2-yl)-6-(thiazole-5-carbonyl)-2,6-diazaspiro[3.4]octane-8-carboxamide]
- IC50 [1]: 1 to 10 µM
- IC50 [2]: > 20 µM

Compound: COC[C@H]1CCCN(C(=O)[C@@H](NC(=O)[C@@H]2CN(C(=O)c3cncs3)CC23CN(S(=O)(=O)C2CC2(C)C)C3)[C@@H](C)OCC2CCCCC2)C1 (some centres unmarked) [Compound I-18]
- IC50 [1]: 1 to 10 µM

Compound: Cc1ccc(CNC(=O)[C@@H]2CN(C(=O)c3cnn(Cc4ccccc4)c3)CC23CN(C(=O)[C@H]2CC2(C)C)C3)nn1 [Compound I-20]
- IC50 [1]: > 10 µM
- IC50 [2]: > 20 µM

Compound: COC[C@H]1CCCN(C(=O)[C@@H](NC(=O)[C@H]2CN(C(=O)c3cncs3)CC23CN(C(=O)[C@H]2CC2(C)C)C3)[C@@H](C)OCC2CCCCC2)C1 [Compound I-21]
- IC50 [1]: 0.1 to 1 µM
- IC50 [2]: 5 to 20 µM

Compound: CC(=O)N1C[C@@H](C(N)=O)C2(C1)CN(C(C)=O)C2 [Compound I-22, (S)-2,6-diacetyl-2,6-diazaspiro[3.4]octane-8-carboxamide]
- IC50 [1]: > 10 µM
- IC50 [2]: > 20 µM

Compound: C[C@@H](OCC1CCCCC1)[C@H](NC(=O)C1CSCC12CN(C(=O)[C@H]1CC1(C)C)C2)C(=O)N1CCCCC1 (stereo partly drawn) [Compound I-23, N-((2S,3R)-3-(cyclohexylmethoxy)-1-oxo-1-(piperidin-1-yl)butan-2-yl)-2-((S)-2,2-dimethylcyclopropane-1-carbonyl)-6-thia-2-azaspiro[3.4]octane-8-carboxamide]
- IC50 [1]: > 10 µM
- IC50 [2]: > 20 µM

Compound: CC(=O)N[C@@H](C(=O)NC1CN(C(=O)c2cncs2)CC12CN(C(=O)[C@H]1CC1(C)C)C2)[C@H](C)OCC1CCCCC1 (stereo partly drawn) [Compound I-24, (2R,3S)-2-acetamido-3-(cyclohexylmethoxy)-N-(2-((S)-2,2-dimethylcyclopropane-1-carbonyl)-6-(thiazole-5-carbonyl)-2,6-diazaspiro[3.4]octan-8-yl)butanamide]
- IC50 [1]: 1 to 10 µM
- IC50 [2]: > 20 µM

Compound: CC1(C)C[C@@H]1C(=O)N1CC2(CN(C(=O)c3cnn(Cc4ccccc4)c3)CC2C#N)C1 (stereo partly drawn) [Compound I-40, 6-(1-benzyl-1H-pyrazole-4-carbonyl)-2-((S)-2,2-dimethylcyclopropane-1-carbonyl)-2,6-diazaspiro[3.4]octane-8-carbonitrile]
- IC50 [1]: > 10 µM
